The numbers were not newly measured in US20240050950A1, “GRADIENT-BASED MICROFLUIDIC CIRCUIT, DEVICE, AND METHOD FOR PERFORMING AN ASSAY” (priority 2020, published 2024), which cites them from elsewhere.

SMILES strings stand for the structures. Where a name gives a salt, the structure may show the parent alone.

The conditions of the first series: Table 1, antimicrobial agents/drugs; cited from earlier work.
With `CS(=O)(=O)c1ccc([C@@H](O)[C@@H](CF)NC(=O)C(Cl)Cl)cc1` [Florfenicol (Aquafen, Nuflor), Florfenicol], the Molar volume is recorded as 246.7 ± 3.0 cm^3.

Consider `COC(=O)Nc1nc2cc(C(=O)c3ccc(F)cc3)ccc2[nH]1` [Flubendazol (Flumoxanal), Flubendazol], for which the Molar volume is reported as 216.8 ± 3.0 cm^3.

With `OC(Cn1cncn1)(Cn1cncn1)c1ccc(F)cc1F` [Fluconazole], the Molar volume is on record as 205.2 ± 7.0 cm^3.

On to `CC(C(=O)O)c1ccc(-c2ccccc2)c(F)c1` (stereo not shown) [Flurbiprofen], for which the Molar volume was 203.6 ± 3.0 cm^3.

Regarding `Nc1ncnc2c([C@@H]3O[C@H](CO)[C@@H](O)[C@H]3O)[nH]nc12` [Formycin A], the Molar volume was 128.1 ± 7.0 cm^3.

Turning to `CO[C@@H]1[C@H](OC(=O)/C=C/C=C/C=C/C=C/C(=O)O)CC[C@]2(CO2)[C@H]1[C@@]1(C)O[C@@H]1CC=C(C)C` [Fumagillin], the Molar volume is 383.2 ± 5.0 cm^3.

For the compound `CCCCc1ccc(C(=O)O)nc1` [Fusaric acid (5-Butylpicolinic acid), 5-Butylpicolinic acid], the Molar volume is given as 161.0 ± 3.0 cm^3.

As to `CN[C@@H]1[C@@H](O)[C@@H](O[C@@H]2[C@@H](O)[C@H](O[C@H]3O[C@H]([C@@H](C)O)[C@@H](O)[C@H](O)[C@H]3N)[C@@H](N)C[C@H]2N)OC[C@]1(C)O` [G 418], the Molar volume is given as 336.3 ± 5.0 cm^3.

As for `Nc1nc(O)c2ncn(COC(CO)CO)c2n1` [Ganciclovir], the Molar volume is 140.5 ± 7.0 cm^3.

As to `COc1c(N2CCNC(C)C2)c(F)cc2c(=O)c(C(=O)O)cn(C3CC3)c12` (stereo not shown) [Gatifloxacin], the Molar volume was 270.7 ± 3.0 cm^3.

In the case of `CN1C(=O)[C@]23CC4=CC=C[C@H](O)[C@H]4N2C(=O)[C@@]1(CO)SS3` [Gliotoxin], the Molar volume is on record as 186.5 ± 5.0 cm^3.

Regarding `COC1=CC(=O)C[C@@H](C)[C@]12Oc1c(Cl)c(OC)cc(OC)c1C2=O` [Griseofulvin], the Molar volume was 255.1 ± 5.0 cm^3.

As to `CO[C@H]1[C@@H](OC)C[C@H](C)[C@@H](OC)C2=CC(=O)C=C(NC(=O)/C(C)=C/C=C\[C@H](OC)[C@@H](OC(N)=O)/C(C)=C/[C@@H]1C)C2=O` [Herbimycin A], the Molar volume was 479.9 ± 5.0 cm^3.

On to `C=CCc1ccc(O)c(-c2ccc(O)c(CC=C)c2)c1` [Honokiol], for which the Molar volume is recorded as 240.4 ± 3.0 cm^3.

`CN[C@H]1C[C@@H](N)[C@H](O)[C@@H](O[C@@H]2O[C@H](CO)[C@H](O)[C@@H]3OC4(O[C@H]23)O[C@H]([C@@H](N)CO)[C@H](O)[C@H](O)[C@H]4O)[C@@H]1O` (stereo partly shown) [Hygromycin B (WK2130000), Hygromycin B]: the Molar volume is 315.1 ± 5.0 cm^3.

For the compound `C[C@H](CCC(=O)O)C[C@H](C)C[C@H](C)C(=O)/C=C(\O)[C@H](C)C[C@H](C)C/C=C/[C@@H](C)[C@@H](O)[C@@H](C)[C@@H](O)C[C@@H]1CC[C@@](C)([C@H]2CC[C@@](C)([C@@H](C)O)O2)O1` [Ionomycin], the Molar volume was 661.0 ± 3.0 cm^3.

Take `Oc1cc(Cl)ccc1Oc1ccc(Cl)cc1Cl` [Irgasan]: the Molar volume is reported as 194.3 ± 3.0 cm^3.

`CO[C@@H]1[C@@H](O[C@@H]2O[C@H](C)[C@@H](O[C@H]3C[C@@](C)(O)[C@@H](OC(=O)CC(C)C)[C@H](C)O3)[C@H](N(C)C)[C@H]2O)[C@@H](CC=O)C[C@@H](C)[C@@H](O)/C=C/C=C/C[C@@H](C)OC(=O)C[C@H]1OC(C)=O` [Josamycin]: the Molar volume was 684.5 ± 5.0 cm^3.

`COC(=O)[C@@]1(O)C[C@H]2O[C@]1(C)n1c3ccccc3c3c4c(c5c6ccccc6n2c5c31)C(=O)NC4` [K-252a]: the Molar volume is recorded as 278.7 ± 7.0 cm^3.

With `CC(=O)N1CCN(c2ccc(OCC3COC(Cn4ccnc4)(c4ccc(Cl)cc4Cl)O3)cc2)CC1` (stereo not shown) [Ketoconazole], the Molar volume is 384.9 ± 7.0 cm^3.

Take `C[C@H](N)C(=O)N[C@@H](C)P(=O)(O)O` [L-Alanyl-L-1-aminoethylphosphonic acid]: the Molar volume is listed as 140.5 ± 3.0 cm^3.

On to `CC(/C=C/C[C@@H](C)/C=C(C)/C=C/[C@@H]1OC(=O)C=C[C@@H]1C)=C\[C@@H](C)C(=O)[C@@H](C)[C@H](O)[C@@H](C)C/C(C)=C/C(=O)O` [Leptomycin A], for which the Molar volume is reported as 487.8 ± 3.0 cm^3.

On to `CCC(=C/[C@H](C)C/C=C/C(C)=C/[C@@H](C)C(=O)[C@@H](C)[C@H](O)[C@@H](C)C/C(C)=C/C(=O)O)/C=C/[C@@H]1OC(=O)C=C[C@@H]1C` [Leptomycin B], for which the Molar volume is on record as 504.3 ± 3.0 cm^3.

Still in this series, the particulars now being: Table 2, anticancer drugs; cited from earlier work.
On to `C[C@]12CC[C@@H]3c4ccc(O)cc4C[C@@H](CCCCCCCCC[S+]([O-])CCCC(F)(F)C(F)(F)F)[C@H]3[C@@H]1CC[C@@H]2O` (stereo partly shown) [Faslodex (Fulvestrant), Fulvestrant], for which the Molar volume is on record as 505.1 ± 3.0 cm^3.

Consider `N#Cc1ccc(C(c2ccc(C#N)cc2)n2cncn2)cc1` [Femara (Letrozole), Letrozole], for which the Molar volume is 234.5 ± 7.0 cm^3.

Consider `C#CCC(Cc1cnc2nc(N)nc(N)c2n1)c1ccc(C(=O)N[C@@H](CCC(=O)O)C(=O)O)cc1` (stereo partly shown) [Folotyn (Pralatrexate), Pralatrexate], for which the Molar volume is 324.5 ± 3.0 cm^3.

Regarding `Nc1nc(=O)c2c([nH]1)NCC(CNc1ccc(C(=O)N[C@@H](CCC(=O)[O-])C(=O)[O-])cc1)N2C=O.[Ca+2]` (stereo partly shown) [Fusilev (Leucovorin Calcium), Leucovorin Calcium], the Molar volume is recorded as 280.7 ± 7.0 cm^3.

In the case of `COc1cc2ncnc(Nc3ccc(F)c(Cl)c3)c2cc1OCCCN1CCOCC1` [Gefitinib], the Molar volume is listed as 337.7 ± 3.0 cm^3.

For the compound `Nc1ccn([C@@H]2O[C@H](CO)[C@@H](O)C2(F)F)c(=O)n1` [Gemcitabine Hydrochloride], the Molar volume was 142.3 ± 7.0 cm^3.

With `CN(C)C/C=C/C(=O)Nc1cc2c(Nc3ccc(F)c(Cl)c3)ncnc2cc1O[C@H]1CCOC1` [Gilotrif (Afatinib Dimaleate), Afatinib Dimaleate], the Molar volume was 351.9 ± 3.0 cm^3.

In the case of `CC(C)C[C@H](NC(=O)[C@@H](COC(C)(C)C)NC(=O)[C@H](Cc1ccc(O)cc1)NC(=O)[C@H](CO)NC(=O)[C@H](Cc1c[nH]c2ccccc12)NC(=O)[C@H](Cc1cnc[nH]1)NC(=O)[C@@H]1CCC(=O)N1)C(=O)N[C@@H](CCCNC(=N)N)C(=O)N1CCC[C@H]1C(=O)NNC(N)=O` [Goserelin Acetate (Zoladex), Goserelin Acetate], the Molar volume is reported as 844.7 ± 7.0 cm^3.

In the case of `CN1C2CCCC1CC(NC(=O)c1nn(C)c3ccccc13)C2` (stereo not shown) [Granisetron], the Molar volume is 234.8 ± 7.0 cm^3.

As for `CC(C)NCC(O)COc1cccc2ccccc12` (stereo not shown) [Hemangeol (Propranolol Hydrochloride), Propranolol Hydrochloride], the Molar volume is reported as 237.1 ± 3.0 cm^3.

In the case of `CC[C@@]1(O)C(=O)OCc2c1cc1n(c2=O)Cc2cc3c(CN(C)C)c(O)ccc3nc2-1` [Hycamtin (Topotecan Hydrochloride), Topotecan Hydrochloride], the Molar volume was 281.3 ± 5.0 cm^3.

Regarding `NC(=O)NO` [Hydrea (Hydroxyurea), Hydroxyurea], the Molar volume is given as 52.1 ± 3.0 cm^3.

For `CC(=O)[C@]1(O)Cc2c(O)c3c(c(O)c2[C@@H](O[C@H]2C[C@H](N)[C@H](O)[C@H](C)O2)C1)C(=O)c1ccccc1C3=O` [Idarubicin Hydrochloride], the Molar volume was 317.8 ± 5.0 cm^3.

Regarding `CC[C@H](Nc1ncnc2[nH]cnc12)c1nc2cccc(F)c2c(=O)n1-c1ccccc1` [Idelalisib (Zydelig), Idelalisib], the Molar volume is listed as 282.2 ± 7.0 cm^3.

Regarding `O=P1(NCCCl)OCCCN1CCCl` (stereo not shown) [Ifex (Ifosfamide), Ifosfamide], the Molar volume is 195.6 ± 5.0 cm^3.

In the case of `N#Cc1ccnc(N2C(=O)CC[C@H]2C(=O)N(c2cncc(F)c2)[C@H](C(=O)NC2CC(F)(F)C2)c2ccccc2Cl)c1` [Ivosidenib (Tibsovo), Ivosidenib], the Molar volume is 383.5 ± 5.0 cm^3.

Turning to `C/C(=C\c1csc(C)n1)[C@@H]1C[C@@H]2O[C@]2(C)CCC[C@H](C)[C@H](O)[C@@H](C)C(=O)C(C)(C)[C@@H](O)CC(=O)N1` [Ixabepilone], the Molar volume is given as 451.5 ± 3.0 cm^3.

Regarding `CN(C)C(=O)c1cc2cnc(Nc3ccc(N4CCNCC4)cn3)nc2n1C1CCCC1` [Kisqali (Ribociclib), Ribociclib], the Molar volume is given as 635.1 ± 5.0 cm^3.

For the compound `CC(C)[C@@H]1NC(=O)[C@H](CCCCN)NC(=O)[C@@H](Cc2c[nH]c3ccccc23)NC(=O)[C@H](Cc2ccc(O)cc2)NC(=O)[C@@H](NC(=O)[C@H](N)Cc2ccc3ccccc3c2)CSSC[C@@H](C(=O)N[C@H](C(N)=O)[C@@H](C)O)NC1=O` [Lanreotide Acetate], the Molar volume is recorded as 781.0 ± 5.0 cm^3.

With `O=C(Nc1cnn2ccc(N3CCC[C@@H]3c3cc(F)ccc3F)nc12)N1CC[C@H](O)C1` [Larotrectinib Sulfate (Vitrakvi), Larotrectinib Sulfate], the Molar volume was 274.6 ± 7.0 cm^3.

In the case of `Nc1cccc2c1CN(C1CCC(=O)NC1=O)C2=O` (stereo not shown) [Lenalidomide], the Molar volume is 177.4 ± 3.0 cm^3.

The series is the same for the next values; noted with them: Table 2, anticancer drugs; listed as Ribociclib; cited from earlier work.
Take `CN(C)C(=O)c1cc2cnc(Nc3ccc(N4CCNCC4)cn3)nc2n1C1CCCC1` [Kisqali (Ribociclib), Ribociclib]: the Molar volume is given as 311.4 ± 7.0 cm^3.

The series is the same for the next values; noted with them: Table 3, antifungal drugs and other molecules; cited from earlier work.
On to `Cc1ccc(C(=O)N2CCN(c3ccc([N+](=O)[O-])cc3)CC2)cc1Cl` [Filastatin], for which the Molar volume was 269.8 ± 3.0 cm^3.

Turning to `CCCCC[C@@H](O)[C@H]1C(=O)O[C@H](C)[C@@H](O)/C=C/C=C/C=C/C=C/C=C(\C)[C@@H](O)C[C@H](O)C[C@H](O)C[C@H](O)C[C@H](O)C[C@H](O)C[C@@H]1O` [Filipin], the Molar volume is 563.7 ± 3.0 cm^3.

Consider `OC(Cn1cncn1)(Cn1cncn1)c1ccc(F)cc1F` [Fluconazole], for which the Molar volume is on record as 205.2 cm^3.

Consider `O=C[C@H](O)[C@@H](O)[C@@H](O)[C@H](O)CO` [Galactose], for which the Molar volume is listed as 104.0 cm^3.

On to `CN(C)c1ccc(C(=C2C=CC(=[N+](C)C)C=C2)c2ccc(N(C)C)cc2)cc1` [Gentian Violet], for which the Molar volume is 340.9 ± 5.0 cm^3.

With `C[C@H]1O[C@H](O[C@H]2[C@H](O)[C@@H](O)[C@@H](O)[C@H](O)[C@@H]2O)[C@@H](N)C[C@@H]1NC(=N)C(=O)O` [Kasugamycin], the Molar volume was 192.2 ± 7.0 cm^3.

`CC(=O)N1CCN(c2ccc(OCC3COC(Cn4ccnc4)(c4ccc(Cl)cc4Cl)O3)cc2)CC1` (stereo not shown) [Ketoconazole]: the Molar volume is recorded as 389.4 cm^3.
